Laboratory results: patent US20260355165A1, “2,3,4,9-TETRAHYDRO-1H-PYRIDO[3,4-B]INDOLE DERIVATIVES AS ESTROGEN RECEPTOR MODULATORS FOR THE TREATMENT OF CANCER” (Olema Pharmaceuticals, Inc., priority 2022, published 2026)
pIC50: −log10 of the molar value.

Molecular target: T1, estrogen receptor (Homo sapiens, UniProt P03372)
T1 construct: endogenous in cells; host or cells: ECC-1 cells
T1 sequence (P03372 1-595): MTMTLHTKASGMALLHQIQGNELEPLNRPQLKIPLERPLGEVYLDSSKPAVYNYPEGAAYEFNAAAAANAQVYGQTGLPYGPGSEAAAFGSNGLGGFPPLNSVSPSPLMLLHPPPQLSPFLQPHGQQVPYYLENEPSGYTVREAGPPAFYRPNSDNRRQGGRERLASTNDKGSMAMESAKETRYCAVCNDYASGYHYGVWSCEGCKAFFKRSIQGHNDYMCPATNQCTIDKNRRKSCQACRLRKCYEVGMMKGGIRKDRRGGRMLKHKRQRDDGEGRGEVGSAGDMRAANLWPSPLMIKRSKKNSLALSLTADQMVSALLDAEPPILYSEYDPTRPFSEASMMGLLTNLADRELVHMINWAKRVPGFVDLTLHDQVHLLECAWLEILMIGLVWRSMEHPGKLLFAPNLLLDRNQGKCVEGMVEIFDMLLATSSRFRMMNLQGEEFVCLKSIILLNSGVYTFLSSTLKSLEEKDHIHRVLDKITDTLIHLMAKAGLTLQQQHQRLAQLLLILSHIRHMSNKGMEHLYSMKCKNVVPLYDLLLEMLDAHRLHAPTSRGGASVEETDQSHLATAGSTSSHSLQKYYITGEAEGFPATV
Assay: AP assay (alkaline phosphatase activity in ECC-1 cells), agonist mode (absence of E2) and antagonist mode (presence of 500 pM E2)
Type: cell-based
Details: for Activity (estrogen receptor modulation, e.g., agonism and antagonism): 3 days, AP activity normalized to 500 pM E2 alone, agonist and antagonist mode combined
Protocol: ECC-1 cells were trypsinized and resuspended in hormone-depleted media and plated at a density of 15 k cells per well into a 96-well plate for at least 4 hours. Cells were treated with test compounds in the absence of E2 (for agonist mode) or in the presence of 500 pM E2 (for antagonist mode) for 3 days and plates were subsequently frozen at −80 °C. Thawed plates were incubated with a chromogenic substrate of AP, p-nitrophenyl phosphate (Thermo Fisher Scientific), for 40 minutes at 42 °C, and absorbances were read at 405 nm. AP activity was normalized to the activity of 500 pM E2 alone.
The compound numbers correspond to the compound numbers of Table 1 and 2. Compounds having an activity designated as “+” provided estrogen receptor agonism having (i) at least 80% increase in the E2-normalized signal in the AP assay (agonist mode) and (ii) no more than 80% reduction in the E2-normalized signal in the AP assay (antagonist mode). Compounds having an activity designated as “++” provided estrogen receptor antagonism having (i) between 10% and 80% increase in the E2-normalized signal in the AP assay (agonist mode) and (ii) between 10% and 80% reduction in the E2-normalized signal in the AP assay (antagonist mode).

C[C@@H]1Cc2c([nH]c3ccccc23)[C@@H](c2c[nH]c3ncc(CN4CC(CF)C4)cc23)N1CC(C)(C)F [Compound I-60, (1R,3R)-1-[5-[[3-(fluoromethyl)azetidin-1-yl]methyl]-1H-pyrrolo[2,3-b]pyridin-3-yl]-2-(2-fluoro-2-methyl-propyl)-3-methyl-1,3,4,9-tetrahydropyrido[3,4-b]indole]
Activity (estrogen receptor modulation, e.g., agonism and antagonism): + (estrogen receptor agonism having (i) at least 80% increase in the E2-normalized signal in the AP assay (agonist mode) and (ii) no more than 80% reduction in the E2-normalized signal in the AP assay (antagonist mode))

CC(C)C1CN(Cc2cc3cc([C@@H]4c5[nH]c6ccccc6c5C[C@@H](C)N4CC(C)(C)F)ccc3[nH]2)C1 [Compound I-95, (1R,3R)-2-(2-fluoro-2-methyl-propyl)-1-[2-[(3-isopropylazetidin-1-yl)methyl]-1H-indol-5-yl]-3-methyl-1,3,4,9-tetrahydropyrido[3,4-b]indole]
Activity (estrogen receptor modulation, e.g., agonism and antagonism): + (estrogen receptor agonism having (i) at least 80% increase in the E2-normalized signal in the AP assay (agonist mode) and (ii) no more than 80% reduction in the E2-normalized signal in the AP assay (antagonist mode))

CC1CN(Cc2nc3cc([C@@H]4c5[nH]c6ccccc6c5C[C@@H](C)N4CC(C)(C)F)ccc3o2)C1 [Compound I-76, 5-[(1R,3R)-2-(2-fluoro-2-methyl-propyl)-3-methyl-1,3,4,9-tetrahydropyrido[3,4-b]indol-1-yl]-2-[(3-methylazetidin-1-yl)methyl]-1,3-benzoxazole]
Activity (estrogen receptor modulation, e.g., agonism and antagonism): +++ (estrogen receptor antagonism (i) with pIC50 greater than 7.5 and at least a 10% reduction in the E2-normalized signal in the AP assay (antagonist mode); and (ii) no more than 10% increase in E2-normalized signal in the AP assay (agonist mode))

C[C@@H]1Cc2c([nH]c3ccccc23)[C@@H](c2ccc3[nH]c(CN4CC5(COC5)C4)cc3c2)N1CC(C)(C)F [Compound I-54, 6-[[5-[(1R,3R)-2-(2-fluoro-2-methyl-propyl)-3-methyl-1,3,4,9-tetrahydropyrido[3,4-b]indol-1-yl]-1H-indol-2-yl]methyl]-2-oxa-6-azaspiro[3.3]heptane]
Activity (estrogen receptor modulation, e.g., agonism and antagonism): + (estrogen receptor agonism having (i) at least 80% increase in the E2-normalized signal in the AP assay (agonist mode) and (ii) no more than 80% reduction in the E2-normalized signal in the AP assay (antagonist mode))

C[C@@H]1Cc2c([nH]c3ccccc23)[C@@H](c2ccc3[nH]c(CN4CC(C)(C)C4)cc3c2)N1CC(C)(C)F [Compound I-92, (1R,3R)-1-[2-[(3,3-dimethylazetidin-1-yl)methyl]-1H-indol-5-yl]-2-(2-fluoro-2-methyl-propyl)-3-methyl-1,3,4,9-tetrahydropyrido[3,4-b]indole]
Activity (estrogen receptor modulation, e.g., agonism and antagonism): + (estrogen receptor agonism having (i) at least 80% increase in the E2-normalized signal in the AP assay (agonist mode) and (ii) no more than 80% reduction in the E2-normalized signal in the AP assay (antagonist mode))

CCCN1CC(n2ncc3cc([C@@H]4c5[nH]c6ccccc6c5C[C@@H](C)N4CC(F)(F)CO)ccc32)C1 (racemic) [Compound I-105, 2,2-difluoro-3-[rac-(1R,3R)-3-methyl-1-[1-(1-propylazetidin-3-yl)indazol-5-yl]-1,3,4,9-tetrahydropyrido[3,4-b]indol-2-yl]propan-1-ol]
Activity (estrogen receptor modulation, e.g., agonism and antagonism): ++ (estrogen receptor antagonism having (i) between 10% and 80% increase in the E2-normalized signal in the AP assay (agonist mode) and (ii) between 10% and 80% reduction in the E2-normalized signal in the AP assay (antagonist mode))

C[C@@H]1Cc2c([nH]c3ccccc23)[C@@H](c2ccc3oc(C4CN(CCCF)C4)nc3c2)N1CC(C)(C)F [Compound I-82, 5-[(1R,3R)-2-(2-fluoro-2-methyl-propyl)-3-methyl-1,3,4,9-tetrahydropyrido[3,4-b]indol-1-yl]-2-[1-(3-fluoropropyl)azetidin-3-yl]-1,3-benzoxazole]
Activity (estrogen receptor modulation, e.g., agonism and antagonism): + (estrogen receptor agonism having (i) at least 80% increase in the E2-normalized signal in the AP assay (agonist mode) and (ii) no more than 80% reduction in the E2-normalized signal in the AP assay (antagonist mode))

C[C@@H]1Cc2c([nH]c3ccccc23)[C@@H](c2ccc3[nH]c(CN4CC5(CC(F)C5)C4)cc3c2)N1CC(C)(C)F [Compound I-52, (1R,3R)-1-[2-[(6-fluoro-2-azaspiro[3.3]heptan-2-yl)methyl]-1H-indol-5-yl]-2-(2-fluoro-2-methyl-propyl)-3-methyl-1,3,4,9-tetrahydropyrido[3,4-b]indole]
Activity (estrogen receptor modulation, e.g., agonism and antagonism): ++ (estrogen receptor antagonism having (i) between 10% and 80% increase in the E2-normalized signal in the AP assay (agonist mode) and (ii) between 10% and 80% reduction in the E2-normalized signal in the AP assay (antagonist mode))

C[C@@H]1Cc2c([nH]c3ccccc23)[C@@H](c2n[nH]c3cc(CN4CC(CF)C4)ccc23)N1CC(F)F [Compound I-36, (1S,3R)-2-(2,2-difluoroethyl)-1-(6-((3-(fluoromethyl)azetidin-1-yl)methyl)-1H-indazol-3-yl)-3-methyl-2,3,4,9-tetrahydro-1H-pyrido[3,4-b]indole]
Activity (estrogen receptor modulation, e.g., agonism and antagonism): ++ (estrogen receptor antagonism having (i) between 10% and 80% increase in the E2-normalized signal in the AP assay (agonist mode) and (ii) between 10% and 80% reduction in the E2-normalized signal in the AP assay (antagonist mode))

C[C@@H]1Cc2c([nH]c3ccccc23)[C@@H](c2n[nH]c3cc(CN4CC[C@@H](CF)C4)ccc23)N1CC(C)(C)F [Compound I-24, (1S,3R)-2-(2-fluoro-2-methyl-propyl)-1-[6-[[(3R)-3-(fluoromethyl)pyrrolidin-1-yl]methyl]-1H-indazol-3-yl]-3-methyl-1,3,4,9-tetrahydropyrido[3,4-b]indole]
Activity (estrogen receptor modulation, e.g., agonism and antagonism): + (estrogen receptor agonism having (i) at least 80% increase in the E2-normalized signal in the AP assay (agonist mode) and (ii) no more than 80% reduction in the E2-normalized signal in the AP assay (antagonist mode))

C[C@@H]1Cc2c([nH]c3ccccc23)[C@@H](c2ccc3[nH]c(CN4CC(CF)C4)cc3c2)N1CC(F)(F)C(F)(F)F [Compound I-110, (1R,3R)-1-[2-[[3-(fluoromethyl)azetidin-1-yl]methyl]-1H-indol-5-yl]-3-methyl-2-(2,2,3,3,3-pentafluoropropyl)-1,3,4,9-tetrahydropyrido[3,4-b]indole]
pIC50 (AP assay, antagonist mode, 500 pM E2, 3 days): > 6.40 | increase in E2-normalized signal in the AP assay (agonist mode) (agonist mode, absence of E2, 3 days): no more than 10% | reduction in the E2-normalized signal in the AP assay (antagonist mode) (antagonist mode, 500 pM E2, 3 days): ≥ 10%

C[C@@H]1Cc2c([nH]c3ccccc23)[C@@H](c2ccc3[nH]c(CN4CC5CC5C4)cc3c2)N1CC(C)(C)F (stereo partly drawn) [Compound I-43, (1R,3R)-1-[2-(3-azabicyclo[3.1.0]hexan-3-ylmethyl)-1H-indol-5-yl]-2-(2-fluoro-2-methyl-propyl)-3-methyl-1,3,4,9-tetrahydropyrido[3,4-b]indole]
Activity (estrogen receptor modulation, e.g., agonism and antagonism): + (estrogen receptor agonism having (i) at least 80% increase in the E2-normalized signal in the AP assay (agonist mode) and (ii) no more than 80% reduction in the E2-normalized signal in the AP assay (antagonist mode))
